Measurements reported in publication PMC5688156, “The natural product carolacton inhibits folate-dependent C1 metabolism by targeting FolD/MTHFD” (Nature Communications, 2017).
Values joined by “and” are separate entries in the source; they are usually repeats but may differ in a detail not shown here. Identical values can stand only once.

Columns and labels:
ecFolD K54N [1] = target: T1, ecFolD K54N (Escherichia coli, UniProt P24186, K54N); experiment: SPR binding to ecFolD K54N; design: species or system E. coli; details: K54N mutant
T1 construct: His-tag (TEV-cleavable, vector pHis-TEV); made in house; host or cells: E. coli BL21 (DE3)
Method: All surface plasmon resonance (SPR) experiments described in this study were performed on a Biacore X100 system. Different FolDs with or without His-tag were coupled on CM5 sensor chips (GE Healthcare) by the amine coupling method using a kit from GE Healthcare Life Sciences (Freiburg, Germany). A pH scouting process was performed before protein immobilization to test the most appropriate buffer and the protein concentration for protein coupling. Finally, 20 μg/mL of ecFolD in 10 mM maleate buffer (pH 6.8), 30 μg/mL of ecFolD Q98H in 10 mM maleate buffer (pH 6.3), 40 μg/mL of ecFolD K54N in 10 mM maleate buffer (pH 5.8), 20 μg/mL of spFolD in 10 mM maleate buffer (pH 6.0) and 15 μg/mL of MTHFD2 (His-tag cleaved) in 10 mM maleate buffer (pH 6.8) were used for coupling. In the protein immobilization procedure, the contact time was calculated based on the pH scouting results to achieve ~3000–5000 relative resonance units (RU). The buffer used in the SPR assays was 1× HBS-P buffer (10 mM HEPES pH 7.4, 150 mM NaCl, 0.05% Tween 20). The 1 mM stock solution of carolacton was prepared in 1× HBS-P buffer and diluted to different concentration ranges by two-fold serial dilution. In the SPR assay, the association time was 180 s and the dissociation time was 600 s. Data analysis was performed using the Biacore evaluation software. […]

ecFolD = target: T2, ecFolD (Escherichia coli, UniProt P24186); experiment: ecFolD dehydrogenase (DH) enzyme assay; assay type: biochemical, E. coli; details: for Ki: carolacton inhibition on DH activity, from apparent KM
T2 construct: His-tag (TEV-cleavable, vector pHis-TEV); made in house; host or cells: E. coli BL21 (DE3)
Method: (§1) (6R,S)-5,10-Methylene-5,6,7,8-tetrahydrofolic acid ((6R,S)-5,10-CH2-THF) calcium salt and (6R,S)-5,10-Methenyl-5,6,7,8-tetrahydrofolic acid ((6R,S)-5,10-CH=THF) chloride were purchased from Schircks Laboratories (Bauma, Switzerland) and used as substrates for FolD dehydrogenase and cyclohydrolase enzyme assays, respectively. Only the R-isomer, which accounts for 50% of (6R,S)-5,10-CH2-THF and (6R,S)-5,10-CH=THF, respectively, is used by the enzyme. (6R,S)-5,10-CH2-THF was dissolved in N2-spargeled basic buffer (50 mM Tris-HCl (pH 8.0), 100 mM β-mercaptoethanol) as described by Varshney et al.[25]. (6R,S)-5,10-CH=THF was dissolved in DMSO as a 100 mM stock solution.
Because FolD is a bifunctional enzyme, dehydrogenase and cyclohydrolase activities were determined for FolD enzyme kinetics, respectively. The dehydrogenase activity of FolD was assayed for its substrate 5,10-CH2-THF and cofactor NADP^+ (in the case of MTHFD2, NAD^+ was used as the cofactor) based on monitoring the formation of 5,10-CH=THF, while the cyclohydrolase activity of FolD was determined for its substrate 5,10-CH=THF by monitoring the hydrolysis of […]. The enzyme kinetics for the dehydrogenase activity of all FolDs except hsMTHFD1_DC were determined at 30 °C in 50 mM Tris-HCl (pH 7.5), 30 mM β-mercaptoethanol. The hsMTHFD1_DC dehydrogenase activity was measured in 25 mM MOPS (pH 7.3), 30 mM β-mercaptoethanol at 30 °C. To measure the enzyme kinetic constants for 5,10-CH2-THF, for example in the case of ecFolD, the NADP concentration was fixed at 1 mM and the concentration of 5,10-CH2-THF varied from 5 to 1500 μM (R-isomer). Similarly, to measure the kinetic constants of ecFolD for NADP^+, the concentration of 5,10-CH2-THF (R-isomer) was fixed at 1 mM and the concentration of NADP^+ varied from 10 to 1500 μM. For different FolDs, the varied concentration range of substrates could be different. […] To monitor the formation of 5,10-CH=THF, the absorbance of the reaction mixture was monitored at 350 nm in micro UV cuvettes (BRAND, Essex, Connecticut, USA). The concentration of 5,10-CH=THF produced in the reaction was determined using an extinction co-efficient of 0.0249 μM^−1 cm^−1. […] The consumption of 5,10-CH=THF was measured by recording the absorbance of the reactions at 355 nm using the TECAN Infinite 200 PRO equipped with a monochromator. […] The inhibition constants (K i) of carolacton on FolD were determined by measuring the apparent K m when adding certain amounts of carolacton to the enzyme reactions. […] To compare the inhibition effects of carolacton between the different FolDs, the half maximal inhibitory concentration (IC50) of carolacton on the same amount of enzyme was determined for FolDs involved in this study. […]

ecFolD K54N [2] = target: T1, ecFolD K54N; experiment: ecFolD K54N mutant dehydrogenase (DH) enzyme assay; assay type: biochemical, E. coli
Method: as §1
Because FolD is a bifunctional enzyme, dehydrogenase and cyclohydrolase activities were determined for FolD enzyme kinetics, respectively. The dehydrogenase activity of FolD was assayed for its substrate 5,10-CH2-THF and cofactor NADP^+ (in the case of MTHFD2, NAD^+ was used as the cofactor) based on monitoring the formation of 5,10-CH=THF, while the cyclohydrolase activity of FolD was determined for its substrate 5,10-CH=THF by monitoring the hydrolysis of […]. The enzyme kinetics for the dehydrogenase activity of all FolDs except hsMTHFD1_DC were determined at 30 °C in 50 mM Tris-HCl (pH 7.5), 30 mM β-mercaptoethanol. […]

L929 mouse cells = system: L929 mouse cells; design: method as in doi:10.1002/ejoc.200901126, PMID 20659313; details: cited from earlier work

## CO[C@H](CC(=O)O)[C@@H](C)C(=O)[C@H](C)/C=C(\C)[C@H]1OC(=O)[C@H](O)[C@H](O)/C=C/[C@H](C)CCC[C@@H]1C [carolacton]
ecFolD K54N [1]
  binding by SPR: does not bind
ecFolD
  IC50: 15.5 nM
ecFolD; Ki (5,10-CH2-THF), competitive vs substrate 5,10-CH2-THF
  Ki: 21 nM and 21.3 nM
ecFolD; Ki (NADP+), competitive vs cofactor NADP+
  Ki: 11 nM and 10.9 nM
ecFolD; read-out: IC80, carolacton inhibition on DH activity
  IC80: 52.2 nM
ecFolD K54N [2]
  sensitivity of residual DH activity to carolacton: completely insensitive
L929 mouse cells
  acute toxicity to L929 mouse cells: no acute toxicity
